# Test results reported in patent publication EP0888346B1, “CORALYNE ANALOGS AS TOPOISOMERASE INHIBITORS” (RUTGERS, THE STATE UNIVERSITY OF NEW JERSEY, priority 1996, dated 1997).
# Experiments:
# [1] = system: yeast cells expressing human topoisomerase I; experiment: Yeast cytotoxicity assay, strain expressing human topo I; format: cell-based, S. cerevisiae; settings: plates with 1 µM drug (camptothecin 0.5 µM), 3 days at 30°C
# Source text: (§1) It has been established that yeast can survive when topoisomerase I function is obliterated, and that the topoisomerase I poisons only kill cells having a functional topoisomerase I (Bjornsti et al. Cancer Res. 49:6318-6323 (1989)).
# (§2) The topoisomerase I-specific in vivo cytotoxicity assay was adapted from Knab et al. (Knab et al., J. Biol. Chem. 268:22322-22330 (1993)). In this system, various topo I genes cloned into the single copy yeast plasmid vector, YCpGAL1 (Knab et al., J. Biol. Chem. 268:22322-22330 (1993)), are expressed under the control of the GAL1 promoter in the JN2-134 strain of S. cerevisiae (MATa, rad52::LEU2, trp1, ade2-1,his7, ura3-52, isel, top1-1, leu2) (Bjornsti et al., Cancer Res. 49:6318-6323 (1989)). The topo I constructs in the vector are, respectively, the wild-type yeast topo I (YCpGAL-ScTOP1), a non-functional yeast topo I where the active site tyrosine-727 is mutated to a phenylalanine (YCpGAL1-Sctop1Y727F) (Knab et al., J. Biol. Chem. 268:22322-22330 (1993)), and the wild type human topoisomerase I (YCpGAL-hTOP1) (Bjornsti et al., Cancer Res. 49:6318-6323 (1989)). To qualitatively test the cytotoxicity and the topo I specificity of the drugs, yeast cells containing the specific plasmid were serially diluted (5-fold) and were grown in dropout medium supplemented with uracil and 2% galactose In addition, the plates contained: A: Control, no drug in the plate; B: Camptothecin (CPT), 0.5 µM; C: Coralyne, 1 µM; D: Methylenedioxy-dihydro-demethyl-coralyne (MDD-Coralyne), 1 µM, and E: Nitidine, 1 µM. The plates were grown for 3 days at 30°C to assess the lethal effect of the different compounds on the various topoisomerase I enzymes expressed in S. cerevisiae.and the drug being tested.
# [2] = system: yeast cells expressing functional yeast topoisomerase I; experiment: Yeast cytotoxicity assay, strain expressing wild-type yeast topo I; format: cell-based, S. cerevisiae; settings: plates with 1 µM drug (camptothecin 0.5 µM), 3 days at 30°C
# Source text: as §1, §2
# [3] = system: yeast cells expressing non-functional yeast topoisomerase I; experiment: Yeast cytotoxicity assay, strain expressing non-functional yeast topo I; format: cell-based, S. cerevisiae; settings: plates with 1 µM drug (camptothecin 0.5 µM), 3 days at 30°C
# Source text: as §1, §2
# [4] = molecular target: T1, recombinant CPT-K5 topoisomerase I (Homo sapiens, UniProt P11387, D533G); experiment: Cleavage assay with camptothecin-resistant mutant topo I; format: biochemical; settings: relative to wildtype human topoisomerase I
# T1 construct: 15 amino acid vector-derived fusion (pET-11a leader); made in house; host or cells: E. coli BL21(DE3)
# T1 sequence (P11387 1-765 D533G): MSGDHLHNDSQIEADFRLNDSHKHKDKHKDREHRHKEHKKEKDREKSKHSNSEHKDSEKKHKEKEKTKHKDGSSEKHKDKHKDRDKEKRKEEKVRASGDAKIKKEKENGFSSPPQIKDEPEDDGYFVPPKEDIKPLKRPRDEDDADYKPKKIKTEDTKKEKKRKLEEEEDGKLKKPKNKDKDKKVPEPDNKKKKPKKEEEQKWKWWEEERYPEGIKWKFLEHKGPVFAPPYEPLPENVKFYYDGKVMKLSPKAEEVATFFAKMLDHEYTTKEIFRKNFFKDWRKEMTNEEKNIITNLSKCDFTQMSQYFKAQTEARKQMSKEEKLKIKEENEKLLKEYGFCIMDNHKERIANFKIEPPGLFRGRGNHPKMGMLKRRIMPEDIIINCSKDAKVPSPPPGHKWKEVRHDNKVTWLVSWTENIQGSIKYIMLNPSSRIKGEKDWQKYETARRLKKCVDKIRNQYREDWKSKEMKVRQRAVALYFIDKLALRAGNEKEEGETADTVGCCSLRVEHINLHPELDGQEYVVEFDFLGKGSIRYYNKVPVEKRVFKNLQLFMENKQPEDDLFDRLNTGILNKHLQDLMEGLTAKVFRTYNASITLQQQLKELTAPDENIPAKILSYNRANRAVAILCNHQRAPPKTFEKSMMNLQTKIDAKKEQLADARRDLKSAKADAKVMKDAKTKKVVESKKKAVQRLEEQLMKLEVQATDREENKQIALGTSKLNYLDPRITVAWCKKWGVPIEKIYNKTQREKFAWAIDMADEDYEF
# Method: Cleavage assays for the recombinant topoisomerases I and calf thymus topoisomerases I and II were done as described (Liu et al., J. Biol. Chem. 258:15365-15370 (1983)). The plasmid YEpG DNA used for the cleavage assays was prepared and labeled at its 3'-end using the published procedures.
# [5] = system: Human lymphoblast RPMI 8402 cells; experiment: MTT-microtiter plate tetrazolinium cytotoxicity assay (MTA); format: cell-based; settings: Homo sapiens, RPMI 8402, 96 h, read-out: Cytotoxicity RPMI 8402
# Source text: (§3) The results were plotted and the IC50 then measured.
# [6] = system: human epidermoid carcinoma KB 3-1 cell line; experiment: MTA cytotoxicity assay, epidermoid carcinoma cells; format: cell-based; settings: KB 3-1, 96 h, read-out: Cytotoxicity KB3-1
# Method: as §3
# (§4) The coralyne analog 7c was tested for its effectiveness against glioblastoma cells. The assay used was similar to that described above for the RPMI-8402 cell line. The results are shown in table 2 below which compares the effect of Compound 7c against the leukemia cell line (RPMI 8402), epidermal carncinoma (KB3-1) and glioblastoma (SF-268): Table 2
# [7] = system: glioblastoma cell line SF-268; experiment: MTA cytotoxicity assay, glioblastoma cells; format: cell-based; settings: Homo sapiens, SF-268, 96 h, read-out: Cytotoxicity SF-268
# Method: as §3, §4
Compound,cytotoxicity against yeast cells expressing human topoisomerase I (in words) [1],cytotoxicity against yeast cells expressing functional yeast topoisomerase I (in words) [2],cytotoxicity against yeast cells expressing non-functional yeast topoisomerase I (in words) [3],resistance of recombinant CPT-K5 topoisomerase I to the drug [4],IC50 [5] [mg/L],IC50 [6] [mg/L],IC50 [7] [mg/L]
Methylenedioxy-dihydro-demethyl-coralyne [MDD-coralyne],highly cytotoxic,not cytotoxic,not cytotoxic,–,–,–,–
"COc1cc2c[n+](C)c3c4cc5c(cc4ccc3c2cc1OC)OCO5 [Nitidine, nitidine]",highly cytotoxic,not cytotoxic,not cytotoxic,less than 10 fold,–,–,–
COc1cc2cc3c4cc(OC)c(OC)cc4cc[n+]3c(C)c2cc1OC [coralyne],no cytotoxicity,resistant,no cytotoxicity,–,3,0.9,0.1
